The results in this text go back to patent US9399626B2, “2-thiopyrimidinones” (Pfizer Inc., priority 2011, dated 2016).

SMILES strings stand for the structures. Where a name gives a salt, the structure may show the parent alone.

The target in the experiment is T1, MPO (purified from human polynuclear leukocytes) (Homo sapiens, UniProt P05164).
T1 construct: purified from human polynuclear leukocytes; purchased Calbiochem/EMD Biosciences; host or cells: human polynuclear leukocytes (natural source)
In words: MPO Amplex Red Activity Assay. Format: biochemical. Conditions: Table 1, 2 μM H2O2, pH 7.4. In short, it runs like this: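 Potency is given as kinact/KI: kobs values from 600 s progress curves, minus the uninhibited rate, are fit against inhibitor concentration. Reactions use 2 μM H2O2, 30 μM Amplex Red, pH 7.4 phosphate buffer with NaCl, DTPA and 2% DMSO, started with […] human MPO. Readout is resorufin fluorescence, catalase background subtracted.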

T1 sequence (P05164 279-745 limits assumed): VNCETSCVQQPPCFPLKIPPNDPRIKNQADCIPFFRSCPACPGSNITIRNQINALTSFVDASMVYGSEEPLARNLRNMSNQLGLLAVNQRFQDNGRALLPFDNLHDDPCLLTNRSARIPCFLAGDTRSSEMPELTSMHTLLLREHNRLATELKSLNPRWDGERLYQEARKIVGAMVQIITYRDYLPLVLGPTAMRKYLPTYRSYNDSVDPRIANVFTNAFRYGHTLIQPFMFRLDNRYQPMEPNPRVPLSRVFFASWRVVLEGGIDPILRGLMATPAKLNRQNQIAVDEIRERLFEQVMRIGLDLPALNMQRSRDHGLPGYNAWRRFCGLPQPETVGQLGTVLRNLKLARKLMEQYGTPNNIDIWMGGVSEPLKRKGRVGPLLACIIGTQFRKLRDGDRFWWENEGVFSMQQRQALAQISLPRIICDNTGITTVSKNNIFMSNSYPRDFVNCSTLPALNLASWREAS
T1 sequence (P05164 165-273 limits assumed): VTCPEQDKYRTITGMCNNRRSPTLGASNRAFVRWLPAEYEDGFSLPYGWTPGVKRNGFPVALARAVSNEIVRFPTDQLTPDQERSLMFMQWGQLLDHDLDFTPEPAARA

For `COc1ccc(Cl)cc1-c1cc(=O)[nH]c(=S)n1CCCN` [Example 92, 1-(3-aminopropyl)-6-(5-chloro-2-methoxyphenyl)-2-thioxo-2,3-dihydropyrimidin-4(1H)-one hydrochloride], the “MPO kinact/Ki” value is 22100 1/s per M.

As to `COc1ncc(Cl)cc1-c1cc(=O)[nH]c(=S)n1CCCN` [Example 93, 1-(3-aminopropyl)-6-(5-chloro-2-methoxypyridin-3-yl)-2-thioxo-2,3-dihydropyrimidin-4(1H)-one hydrochloride], the “MPO kinact/Ki” value is 5120 1/s per M.

Turning to `COc1ccc(Cl)cc1-c1cc(=O)[nH]c(=S)n1CCCO` [Example 94, 6-(5-chloro-2-methoxyphenyl)-1-(3-hydroxypropyl)-2-thioxo-2,3-dihydropyrimidin-4(1H)-one], the “MPO kinact/Ki” value is 6930 1/s per M.

With `COc1cc2ccccc2cc1-c1cc(=O)[nH]c(=S)n1CCN` [Example 95, 1-(2-aminoethyl)-6-(3-methoxy-2-naphthyl)-2-thioxo-2,3-dihydropyrimidin-4(1H)-one hydrochloride], the “MPO kinact/Ki” value is given as 15400 1/s per M.

As for `COCCn1c(-c2cc(Cl)cnc2OC)cc(=O)[nH]c1=S` [Example 96, 6-(5-chloro-2-methoxypyridin-3-yl)-1-(2-methoxyethyl)-2-thioxo-2,3-dihydropyrimidin-4(1H)-one], the “MPO kinact/Ki” value is recorded as 2200 1/s per M.

Take `COc1nc2ccccc2cc1-c1cc(=O)[nH]c(=S)n1CCN` [Example 97, 1-(2-aminoethyl)-6-(2-methoxyquinolin-3-yl)-2-thioxo-2,3-dihydropyrimidin-4(1H)-one trifluoroacetate]: the “MPO kinact/Ki” value was 6310 1/s per M.

For `NCCCn1c(-c2ccccc2-n2nccn2)cc(=O)[nH]c1=S` [Example 98, 1-(3-aminopropyl)-2-thioxo-6-[2-(2H-1,2,3-triazol-2-yl)phenyl]-2,3-dihydropyrimidin-4(1H)-one hydrochloride], the “MPO kinact/Ki” value was 1870 1/s per M.

Turning to `NC(=O)Cn1c(-c2ccccc2-n2nccn2)cc(=O)[nH]c1=S` [Example 99, 2-{4-oxo-2-thioxo-6-[2-(2H-1,2,3-triazol-2-yl)phenyl]-3,4-dihydropyrimidin-1(2H)-yl}acetamide], the “MPO kinact/Ki” value is given as 2920 1/s per M.

Turning to `COc1cc2ccccc2cc1-c1cc(=O)[nH]c(=S)n1CCO` [Example 100, 1-(2-hydroxyethyl)-6-(3-methoxy-2-naphthyl)-2-thioxo-2,3-dihydropyrimidin-4(1H)-one], the “MPO kinact/Ki” value was 16100 1/s per M.

Consider `COCCn1c(-c2ccccc2-n2nccn2)cc(=O)[nH]c1=S` [Example 101, 1-(2-methoxyethyl)-2-thioxo-6-[2-(2H-1,2,3-triazol-2-yl)phenyl]-2,3-dihydropyrimidin-4(1H)-one], for which the “MPO kinact/Ki” value was 4140 1/s per M.

With `CCOc1ccccc1-c1cc(=O)[nH]c(=S)n1CC1CCCO1` (stereo not shown) [Example 102, 6-(2-ethoxyphenyl)-1-(tetrahydrofuran-2-ylmethyl)-2-thioxo-2,3-dihydropyrimidin-4(1H)-one], the “MPO kinact/Ki” value was 4200 1/s per M.

With `COc1ccccc1-c1cc(=O)[nH]c(=S)n1CCCN=C(N)N` [Example 103, 2-{3-[6-(2-methoxyphenyl)-4-oxo-2-thioxo-3,4-dihydropyrimidin-1(2H)-yl]propyl} guanidine], the “MPO kinact/Ki” value was 41800 1/s per M.

On to `CCOc1ccccc1-c1cc(=O)[nH]c(=S)n1CCOC(C)C` [Example 104, 6-(2-ethoxyphenyl)-1-(2-isopropoxyethyl)-2-thioxo-2,3-dihydropyrimidin-4(1H)-one], for which the “MPO kinact/Ki” value is 1210 1/s per M.

Consider `COc1cc(OC)c(-c2cc(=O)[nH]c(=S)n2CCCN)cc1C` [Example 105, 1-(3-aminopropyl)-6-(2,4-dimethoxy-5-methylphenyl)-2-thioxo-2,3-dihydropyrimidin-4(1H)-one hydrochloride], for which the “MPO kinact/Ki” value was 27300 1/s per M.

Consider `COc1cc(-c2cc(=O)[nH]c(=S)n2CCCN)c(OC)cc1C` [Example 106, 1-(3-aminopropyl)-6-(2,5-dimethoxy-4-methylphenyl)-2-thioxo-2,3-dihydropyrimidin-4(1H)-one hydrochloride], for which the “MPO kinact/Ki” value was 10500 1/s per M.

For `COc1cc(OC)c(-c2cc(=O)[nH]c(=S)n2CC(N)=O)cc1F` [Example 107, 2-[6-(5-fluoro-2,4-dimethoxyphenyl)-4-oxo-2-thioxo-3,4-dihydropyrimidin-1(2H)-yl]acetamide], the “MPO kinact/Ki” value is given as 1280 1/s per M.

Turning to `COc1cc(OC)c(-c2cc(=O)[nH]c(=S)n2CCCN)cc1F` [Example 108, 1-(3-aminopropyl)-6-(5-fluoro-2,4-dimethoxyphenyl)-2-thioxo-2,3-dihydropyrimidin-4(1H)-one hydrochloride], the “MPO kinact/Ki” value is recorded as 5800 1/s per M.

Consider `COCCn1c(-c2cccc(S(C)(=O)=O)c2)cc(=O)[nH]c1=S` [Example 109, 1-(2-methoxyethyl)-6-[3-(methylsulfonyl)phenyl]-2-thioxo-2,3-dihydropyrimidin-4(1H)-one], for which the “MPO kinact/Ki” value is recorded as 914 1/s per M.

`COCCn1c(-c2ccc(S(C)(=O)=O)cc2)cc(=O)[nH]c1=S` [Example 110, 1-(2-methoxyethyl)-6-[4-(methylsulfonyl)phenyl]-2-thioxo-2,3-dihydropyrimidin-4(1H)-one]: the “MPO kinact/Ki” value is listed as 864 1/s per M.

In the case of `COc1cc(OC)c(-c2cc(=O)[nH]c(=S)n2CCN)cc1Cl` [Example 111, 1-(2-aminoethyl)-6-(5-chloro-2,4-dimethoxyphenyl)-2-thioxo-2,3-dihydropyrimidin-4(1H)-one hydrochloride], the “MPO kinact/Ki” value is on record as 10300 1/s per M.

With `COc1cc2ccccc2cc1-c1cc(=O)[nH]c(=S)n1CC(N)=O` [Example 112, 2-[6-(3-methoxy-2-naphthyl)-4-oxo-2-thioxo-3,4-dihydropyrimidin-1(2H)-yl]acetamide], the “MPO kinact/Ki” value is recorded as 14900 1/s per M.

As for `COc1ccc(Cl)cc1-c1cc(=O)[nH]c(=S)n1C[C@@H](O)CN` [Example 113, 1-[(2S)-3-amino-2-hydroxypropyl]-6-(5-chloro-2-methoxyphenyl)-2-thioxo-2,3-dihydropyrimidin-4(1H)-one trifluoroacetate], the “MPO kinact/Ki” value was 25900 1/s per M.

On to `COc1ccc(Cl)cc1-c1cc(=O)[nH]c(=S)n1C[C@H](O)CN` [Example 114, 1-[(2R)-3-amino-2-hydroxypropyl]-6-(5-chloro-2-methoxyphenyl)-2-thioxo-2,3-dihydropyrimidin-4(1H)-one trifluoroacetate], for which the “MPO kinact/Ki” value is 9770 1/s per M.

`COCCn1c(-c2ccc3ccccc3c2OC)cc(=O)[nH]c1=S` [Example 115, 1-(2-methoxyethyl)-6-(1-methoxy-2-naphthyl)-2-thioxo-2,3-dihydropyrimidin-4(1H)-one]: the “MPO kinact/Ki” value was 4380 1/s per M.

Take `COc1ccc(Cl)cc1-c1cc(=O)[nH]c(=S)n1C[C@@H](O)CO` [Example 116, 6-(5-chloro-2-methoxyphenyl)-1-[(2R)-2,3-dihydroxypropyl]-2-thioxo-2,3-dihydropyrimidin-4(1H)-one]: the “MPO kinact/Ki” value is given as 9920 1/s per M.

`COCCn1c(-c2cc3ccccc3cc2OC)cc(=O)[nH]c1=S` [Example 117, 1-(2-methoxyethyl)-6-(3-methoxy-2-naphthyl)-2-thioxo-2,3-dihydropyrimidin-4(1H)-one]: the “MPO kinact/Ki” value is recorded as 11400 1/s per M.

Consider `COCCn1c(-c2ccccc2OC(F)(F)F)cc(=O)[nH]c1=S` [Example 118, 1-(2-methoxyethyl)-2-thioxo-6-[2-(trifluoromethoxy)phenyl]-2,3-dihydropyrimidin-4(1H)-one], for which the “MPO kinact/Ki” value was 5500 1/s per M.

For the molecule `COc1ccc(C)cc1-c1cc(=O)[nH]c(=S)n1CCCN=C(N)N` [Example 119, 2-{3-[6-(2-methoxy-5-methylphenyl)-4-oxo-2-thioxo-3,4-dihydropyrimidin-1(2H)-yl]propyl} guanidine], the “MPO kinact/Ki” value is given as 25600 1/s per M.

Turning to `COc1ccc(C)cc1-c1cc(=O)[nH]c(=S)n1CCNC(=O)CN` [Example 120, N-{2-[6-(2-methoxy-5-methylphenyl)-4-oxo-2-thioxo-3,4-dihydropyrimidin-1(2H)-yl]ethyl} glycinamide hydrochloride], the “MPO kinact/Ki” value is listed as 9720 1/s per M.

For `COc1ccc(OC)c(-c2cc(=O)[nH]c(=S)n2CCN=C(N)N)c1` [Example 121, 2-{2-[6-(2,5-dimethoxyphenyl)-4-oxo-2-thioxo-3,4-dihydropyrimidin-1(2H)-yl]ethyl}guanidine hydrochloride], the “MPO kinact/Ki” value was 15800 1/s per M.

As to `COc1ccc(Cl)cc1-c1cc(=O)[nH]c(=S)n1C[C@H]1CCCN1` [Example 122, 6-(5-chloro-2-methoxyphenyl)-1-[(2R)-pyrrolidin-2-ylmethyl]-2-thioxo-2,3-dihydropyrimidin-4(1H)-one hydrochloride], the “MPO kinact/Ki” value was 9310 1/s per M.

As for `COc1ccc(Cl)cc1-c1cc(=O)[nH]c(=S)n1C[C@@H]1CCCN1` [Example 123, 6-(5-chloro-2-methoxyphenyl)-1-[(2S)-pyrrolidin-2-ylmethyl]-2-thioxo-2,3-dihydropyrimidin-4(1H)-one hydrochloride], the “MPO kinact/Ki” value was 3780 1/s per M.

With `COc1cc(OC)c(-c2cc(=O)[nH]c(=S)n2CC(N)=O)cc1OC` [Example 124, 2-[4-oxo-2-thioxo-6-(2,4,5-trimethoxyphenyl)-3,4-dihydropyrimidin-1(2H)-yl]acetamide], the “MPO kinact/Ki” value is reported as 4610 1/s per M.

`COc1cc(OC)c(-c2cc(=O)[nH]c(=S)n2CCCN)cc1OC` [Example 125, 1-(3-aminopropyl)-2-thioxo-6-(2,4,5-trimethoxyphenyl)-2,3-dihydropyrimidin-4(1H)-one hydrochloride]: the “MPO kinact/Ki” value is reported as 10600 1/s per M.
